In PubChem BioAssay AID463130 (The Scripps Research Institute Molecular Screening Center, 2010):

Molecular target: Protein phosphatase methylesterase 1 (Homo sapiens) (UniProt Q9Y570)
Assay: inhibition of PME-1 probe labeling – gel-based ABPP, IC50, set 1, late-stage follow-up (AID 463130)
Details: fluorophosphonate probe labeling

Sequence of Protein phosphatase methylesterase 1 (Homo sapiens) (Q9Y570 whole entry, looked up): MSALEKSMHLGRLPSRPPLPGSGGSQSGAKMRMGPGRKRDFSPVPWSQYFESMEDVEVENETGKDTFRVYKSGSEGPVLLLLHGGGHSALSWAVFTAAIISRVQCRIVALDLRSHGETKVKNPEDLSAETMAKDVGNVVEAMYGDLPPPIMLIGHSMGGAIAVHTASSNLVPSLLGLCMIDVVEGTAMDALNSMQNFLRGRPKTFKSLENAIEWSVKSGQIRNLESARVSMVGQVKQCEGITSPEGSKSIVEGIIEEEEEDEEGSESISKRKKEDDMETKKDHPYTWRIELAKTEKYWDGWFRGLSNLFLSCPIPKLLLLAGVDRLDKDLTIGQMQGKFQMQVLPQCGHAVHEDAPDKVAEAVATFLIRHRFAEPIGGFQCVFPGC

- IC50: 195 nM
SMILES: COC(=O)N1C(=O)[C@](c2ccccc2)(C(C)C)N1C(=O)OC
